In publication PMC9944328 (Nature Communications, 2023):
Where “and” joins values, the source holds several entries; their conditions need not be identical. Equal entries are not always repeated.

Biological target: SSTR2 (Homo sapiens, UniProt P30874)
Experiment: SSTRs Gi-mediated cAMP inhibition, GloSensor, HEK293, 5 μM forskolin, 15 min room temperature (SSTR2 wild-type);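 for Bottom (best-fit value): normalized to the maximal wild-type response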;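 for Bottom (best-fit): normalized to the maximal wild-type response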;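 for Span (best-fit value): normalized to the maximal wild-type response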;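 for Span (best-fit): normalized to the maximal wild-type response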;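 for Top (best-fit value): normalized to the maximal wild-type response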;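 for Top (best-fit): normalized to the maximal wild-type response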
Type: cell-based
Design: Best-fit Top, cAMP inhibition / Span, cAMP inhibition / Best-fit Bottom / Best-fit Top / Best-fit Span / Bottom / Span (best-fit value), cAMP inhibition / Top (best-fit value), cAMP inhibition: scale not given here
Settings: for Best-fit Top, cAMP inhibition / Span, cAMP inhibition: octreotide
Procedure: The levels of the intracellular 3′, 5′-cyclic AMP (cAMP) were measured by the GloSensor cAMP assay (Promega) as described in the previous studies[28],[41] which has been widely used. The human full-length SSTRs and mutants were cloned into the pcDNA3.1+ vector with a HA signal sequence followed by a Flag tag at the N-terminus. HEK293 cells (ATCC, CRL-1573) were seeded into 6-well microplates at a density of 1.0 × 10^6 cells/well and cultured for 24 h at 37 °C with 5% CO2. Cells were then co-transfected with SSTR wild-type or mutants and GloSensor plasmids. After 24 h of transfection, the cells were dissociated with TrypLE™ Express Enzyme (1X) (Thermo Fisher Scientific) and collected by centrifugation at 500 × g for 5 min. Then the collected cells were suspended in Hank’s balanced salt solution [HBSS (Thermo Fisher Scientific)] supplemented with […] (YEASEN), and then the suspension cells were seeded into 96-well plates with 90 μl/well. After incubating at room temperature for 40 min, 5 μM forskolin and ligands diluted in HBSS were added to each well and the plates were incubated at room temperature for 15 min. […] were measured using the Synergy H1 microplate reader (BioTek) and the data presented are means of at least three independent experiments.

[1] = cAMP inhibition, SSTR2 WT-1 (run 1)
[2] = cAMP inhibition, SSTR2 WT-2 (run 2)
[3] = cAMP inhibition, SSTR2 WT-3 (run 3)
[4] = SSTR2 WT-1, run 1 (WT of each mutant's set)
[5] = SSTR2 WT-2, run 2 (WT of each mutant's set)
[6] = SSTR2 WT-3, run 3 (WT of each mutant's set)

Chain of SSTR2 (P30874 whole entry): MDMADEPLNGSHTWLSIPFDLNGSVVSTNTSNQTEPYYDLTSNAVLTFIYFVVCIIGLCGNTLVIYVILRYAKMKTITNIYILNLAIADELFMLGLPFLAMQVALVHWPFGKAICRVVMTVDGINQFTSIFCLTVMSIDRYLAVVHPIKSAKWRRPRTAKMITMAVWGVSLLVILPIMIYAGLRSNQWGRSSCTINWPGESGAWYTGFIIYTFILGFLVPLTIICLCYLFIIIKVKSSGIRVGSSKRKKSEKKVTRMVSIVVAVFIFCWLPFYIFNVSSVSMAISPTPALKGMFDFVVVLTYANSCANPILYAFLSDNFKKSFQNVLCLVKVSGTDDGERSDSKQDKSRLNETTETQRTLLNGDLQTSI

## C[C@@H](O)[C@@H]1NC(=O)[C@H](CCCCN)NC(=O)[C@@H](Cc2c[nH]c3ccccc23)NC(=O)[C@H](Cc2ccccc2)NC(=O)[C@@H](NC(=O)[C@H](N)Cc2ccccc2)CSSC[C@@H](C(=O)N[C@H](CO)[C@@H](C)O)NC1=O [octreotide]
HEK293, Gi signaling, SSTR2 WT, n=6, read-out: Emax
  Emax: 100%
SSTR2, Fig. 1
  Activation potency level: nanomolar level
WT-1, run 1, batch of I284A
  Bottom (best-fit value): 6.42
  Span (best-fit value): 102.3
  Top (best-fit value): 108.8
WT-1, run 1, batch of P286A
  Bottom (best-fit value): 0.4925
  Span (best-fit value): 108.4
  Top (best-fit value): 108.9
WT-1, run 1, batch of S285A
  Bottom (best-fit value): -1.909
  Span (best-fit value): 108.3
  Top (best-fit value): 106.4
WT-1, run 1, batch of T194A
  Bottom (best-fit value): 5.269
WT-1, run 1, batch of T287A
  Bottom (best-fit value): 5.269
  Span (best-fit value): 95.18
  Top (best-fit value): 100.5
WT-1, run 1, batch of W188A
  LogEC50 (best-fit value): -10.06
  Span (best-fit value): 114.6
  Top (best-fit value): 120.5
WT-1 of D295A set
  Best-fit Bottom: -0.7512
  Best-fit Span: 96.76
  Best-fit Top: 96
WT-1 of F208A set
  Span (best-fit): 95.18
WT-1 of F265A set
  Bottom (best-fit): 9.705
  Top (best-fit): 105
WT-1 of F272A set
  Bottom (best-fit): 5.108
  Span (best-fit): 89.16
  Top (best-fit): 94.27
WT-1 of F294A set
  Best-fit Bottom: 5.269
  Best-fit Span: 95.18
  Best-fit Top: 100.5
WT-1 of K291A set
  Best-fit Bottom: 7.96
  Best-fit Span: 79.36
  Best-fit Top: 87.32
WT-1 of L290A set
  Best-fit Bottom: -1.909
  Best-fit Span: 108.3
  Best-fit Top: 106.4
WT-1 of N276A set
  Bottom (best-fit): 7.96
  Span (best-fit): 79.36
  Top (best-fit): 87.32
WT-1 of P220A set
  Bottom (best-fit): 21.28
  Span (best-fit): 73.55
  Top (best-fit): 94.83
WT-1 of S279A set
  Best-fit Bottom: 5.108
  Best-fit Span: 89.16
  Best-fit Top: 94.27
WT-1 of W269A set
  Bottom (best-fit): 6.42
  Span (best-fit): 102.3
  Top (best-fit): 108.8
WT-1 of Y302A set
  Best-fit Bottom: 6.42
  Best-fit Span: 102.3
  Best-fit Top: 108.8
WT-2, run 2, batch of I284A
  Bottom (best-fit value): -0.5171
  Span (best-fit value): 111.1
  Top (best-fit value): 110.6
WT-2, run 2, batch of P286A
  Bottom (best-fit value): 4.88
  LogEC50 (best-fit value): -10.01
  Span (best-fit value): 102.3
  Top (best-fit value): 107.2
WT-2, run 2, batch of S285A
  Bottom (best-fit value): 5.269
  Span (best-fit value): 95.18
  Top (best-fit value): 100.5
WT-2, run 2, batch of T194A
  Bottom (best-fit value): 2.714
WT-2, run 2, batch of T287A
  Bottom (best-fit value): -7.526
  Span (best-fit value): 120.1
  Top (best-fit value): 112.6
WT-2, run 2, batch of W188A
  Bottom (best-fit value): 4.88
  LogEC50 (best-fit value): -10.01
  Span (best-fit value): 102.3
  Top (best-fit value): 107.2
WT-2 of D295A set
  Best-fit Bottom: -0.7512
  Best-fit Span: 96.76
  Best-fit Top: 96
WT-2 of F208A set
  Span (best-fit): 79.83
WT-2 of F265A set
  Bottom (best-fit): 21.28
  Span (best-fit): 73.55
  Top (best-fit): 94.83
WT-2 of F272A set
  Bottom (best-fit): 5.269
  Span (best-fit): 95.18
  Top (best-fit): 100.5
WT-2 of F294A set
  Best-fit Bottom: 2.714
  Best-fit Span: 101.1
  Best-fit Top: 103.8
WT-2 of K291A set
  Best-fit Bottom: 0.9124
  Best-fit Span: 101.5
  Best-fit Top: 102.4
WT-2 of L290A set
  Best-fit Bottom: 5.269
  Best-fit Span: 95.18
  Best-fit Top: 100.5
WT-2 of N276A set
  Bottom (best-fit): 2.714
  Span (best-fit): 101.1
  Top (best-fit): 103.8
WT-2 of P220A set
  Bottom (best-fit): 2.714
  Span (best-fit): 101.1
  Top (best-fit): 103.8
WT-2 of S279A set
  Best-fit Bottom: -6.301
  Best-fit Span: 114.5
  Best-fit Top: 108.2
WT-2 of W269A set
  Bottom (best-fit): -0.5171
  Span (best-fit): 111.1
  Top (best-fit): 110.6
WT-2 of Y302A set
  Best-fit Bottom: -0.5171
  Best-fit Span: 111.1
  Best-fit Top: 110.6
WT-3, run 3, batch of I284A
  Bottom (best-fit value): 5.269
  Span (best-fit value): 95.18
  Top (best-fit value): 100.5
WT-3, run 3, batch of P286A
  Bottom (best-fit value): 0.3403
  Span (best-fit value): 101
  Top (best-fit value): 101.3
WT-3, run 3, batch of S285A
  Bottom (best-fit value): 0.3403
  Span (best-fit value): 101
  Top (best-fit value): 101.3
WT-3, run 3, batch of T194A
  Bottom (best-fit value): 9.705
WT-3, run 3, batch of T287A
  Bottom (best-fit value): 0.3403
  Span (best-fit value): 101
  Top (best-fit value): 101.3
WT-3, run 3, batch of W188A
  Bottom (best-fit value): 0.3403
  Span (best-fit value): 101
  Top (best-fit value): 101.3
WT-3 of D295A set
  Best-fit Bottom: 5.262
  Best-fit Span: 106.6
  Best-fit Top: 111.9
WT-3 of F208A set
  Span (best-fit): 108.3
WT-3 of F265A set
  Bottom (best-fit): 9.705
  Span (best-fit): 95.34
  Top (best-fit): 105
WT-3 of F272A set
  Bottom (best-fit): 21.28
  Span (best-fit): 73.55
  Top (best-fit): 94.83
WT-3 of F294A set
  Best-fit Bottom: -6.301
  Best-fit Span: 114.5
  Best-fit Top: 108.2
WT-3 of K291A set
  Best-fit Bottom: 9.705
  Best-fit Span: 95.34
  Best-fit Top: 105
WT-3 of L290A set
  Best-fit Bottom: 0.5044
  Best-fit Span: 101.8
  Best-fit Top: 102.3
WT-3 of N276A set
  Bottom (best-fit): 9.705
  Span (best-fit): 95.34
  Top (best-fit): 105
WT-3 of P220A set
  Bottom (best-fit): 9.705
  Span (best-fit): 95.34
  Top (best-fit): 105
WT-3 of S279A set
  Best-fit Bottom: 5.269
  Best-fit Span: 95.18
  Best-fit Top: 100.5
WT-3 of W269A set
  Bottom (best-fit): 5.108
  Span (best-fit): 89.16
  Top (best-fit): 94.27
WT-3 of Y302A set
  Best-fit Bottom: 5.269
  Best-fit Span: 95.18
  Best-fit Top: 100.5
[1]
  Span (best-fit value): 89.16 and 95.18 and 102.3 and 73.55 and 108.3
  Top (best-fit value): 94.27 and 100.5 and 105.4 and 94.83 and 106.4
[2]
  Span (best-fit value): 114.5 and 95.18 and 103.8 and 101.1
  Top (best-fit value): 108.2 and 100.5 and 107.6 and 103.8 and 95.77
[3]
  Span (best-fit value): 114.5 and 89.16 and 108 and 95.34 and 149.7
  Top (best-fit value): 108.2 and 94.27 and 109.2 and 105 and 143.2 and 106.4
cAMP inhibition, SSTR2-WT, run 1
  Top (best-fit): 101.1
cAMP inhibition, SSTR2-WT, run 2
  Top (best-fit): 101.1
cAMP inhibition, SSTR2-WT, run 3
  Top (best-fit): 96.66
cAMP inhibition, SSTR2-WT, run 4
  Top (best-fit): 105.3
[4]
  Best-fit Top, cAMP inhibition: 94.27 and 103.3 and 100.5 and 96 and 105 and 108.2
  Span, cAMP inhibition: 89.16 and 99.34 and 96.76 and 114.5
[5]
  Best-fit Top, cAMP inhibition: 103.8 and 107.6 and 101.1 and 105.4 and 106.4
  Span, cAMP inhibition: 101.1 and 103.8 and 99.15 and 102.3 and 108.3
[6]
  Best-fit Top, cAMP inhibition: 103.8 and 101.3 and 105 and 107.6 and 103.3
  Span, cAMP inhibition: 101.1 and 101 and 103.8 and 99.34
